The results in this text go back to patent US20060115815A1 (priority 2002, published 2006).

In general, EC50 refers to the concentration needed to bring the measured effect to its halfway point.

Where only a bound is given, the exact number is not on record here.

The assay concerns wild-type HIV-1 strain IIIB. Put plainly: microbe, parasite or virus in culture. As to conditions: read-out: EC50. In kind it is cell-based.
In the case of `CCOP(=O)(CCN1CCN(CC(NC(=O)OC2COC3OCCC23)C(O)CN(CC(C)C)S(=O)(=O)c2ccc(OC)cc2)CC1)OCC` (centres unmarked), the EC50 fell in the range of 50 to 500 nM. Under `CCOC(=O)C(C)OP(=O)(CN1CC=C(CC(NC(=O)OC2COC3OCCC23)C(O)CN(CC(C)C)S(=O)(=O)c2ccc(OC)cc2)CC1)Oc1ccccc1` (centres unmarked) stands above 5000 nM; under `CCOC(=O)C(C)OP(=O)(CCN1CC=C(CC(NC(=O)OC2COC3OCCC23)C(O)CN(CC(C)C)S(=O)(=O)c2ccc(OC)cc2)CC1)Oc1ccccc1` (centres unmarked), above 5000 nM. Under `COc1ccc(S(=O)(=O)N(CC(C)C)CC(O)C(CC2=CCN(CCP(=O)(O)OC(C)C(=O)O)CC2)NC(=O)OC2COC3OCCC23)cc1` (centres unmarked) stands above 5000 nM; under `CCOC(=O)C(C)OP(=O)(Cc1ccc(NCC(NC(=O)OC2COC3OCCC23)C(O)CN(CC(C)C)S(=O)(=O)c2ccc(OC)cc2)cc1)Oc1ccccc1` (centres unmarked), below 50 nM.

For the compound `CCOC(=O)C(C)OP(=O)(Cc1ccc(N(C)CC(NC(=O)OC2COC3OCCC23)C(O)CN(CC(C)C)S(=O)(=O)c2ccc(OC)cc2)cc1)Oc1ccccc1` (centres unmarked), the EC50 is below 50 nM. With `CCOP(=O)(OCC)c1ccc(CNCC(NC(=O)OC2COC3OCCC23)C(O)CN(CC(C)C)S(=O)(=O)c2ccc(OC)cc2)cc1` (centres unmarked) the figure was below 50 nM.

Turning to `COc1ccc(S(=O)(=O)N(CCN(C)C)CC(O)C(Cc2ccc(O)cc2)NC(=O)OC2COC3OCCC23)cc1` (centres unmarked), the EC50 is 50 to 500 nM. With `CCOP(=O)(COc1ccc(C[C@H](NC(=O)O[C@H]2CO[C@H]3OCC[C@H]32)[C@H](O)CN(CC(C)C)S(=O)(=O)c2ccc([N+](=O)[O-])cc2)cc1)OCC` the figure was below 50 nM; with `CCOC(=O)C(C)OP(=O)(COc1ccc(C[C@H](NC(=O)O[C@H]2CO[C@H]3OCC[C@H]32)[C@H](O)CN(CC(C)C)S(=O)(=O)c2ccc(O)cc2)cc1)Oc1ccccc1` (some centres unmarked), below 50 nM; with `CCOC(=O)C(C)OP(=O)(COc1ccc(C[C@H](NC(=O)O[C@H]2CO[C@H]3OCC[C@H]32)[C@H](O)CN(CC(C)C)S(=O)(=O)c2ccc(OCc3ccccc3)cc2)cc1)Oc1ccccc1` (some centres unmarked), 50 to 500 nM. With `CC(C)CN(C[C@@H](O)[C@H](Cc1ccc(OCP(=O)(OCc2ccccc2)OC(C)C(=O)OCc2ccccc2)cc1)NC(=O)O[C@H]1CO[C@H]2OCC[C@H]21)S(=O)(=O)c1ccc(OCc2ccccc2)cc1` (some centres unmarked) the figure was above 5000 nM; with `CC(C)CN(C[C@@H](O)[C@H](Cc1ccc(OCP(=O)(OCc2ccccc2)OC(C)C(=O)OCc2ccccc2)cc1)NC(=O)O[C@H]1CO[C@H]2OCC[C@H]21)S(=O)(=O)c1ccccc1` (some centres unmarked), 50 to 500 nM. Under `CC(C)CN(C[C@@H](O)[C@H](Cc1ccc(OCP(=O)(OCc2ccccc2)OCc2ccccc2)cc1)NC(=O)O[C@H]1CO[C@H]2OCC[C@H]21)S(=O)(=O)c1ccc(C(F)(F)F)cc1` stands below 50 nM; under `CC(C)CN(CC(O)C(Cc1ccc(OCP(=O)(OCc2ccccc2)OC(C)C(=O)OCc2ccccc2)cc1)NC(=O)OC1COC2OCCC12)S(=O)(=O)c1ccc[n+]([O-])c1` (centres unmarked), above 5000 nM. Regarding `CCOC(=O)C(C)OP(=O)(COc1ccc(CC(NC(=O)OC2COC3OCCC23)C(O)CN(CC(C)C)S(=O)(=O)c2ccc(C=O)cc2)cc1)Oc1ccccc1` (centres unmarked), the EC50 was below 50 nM. Under `CC(C)CN(CC(O)C(Cc1ccc(OCP(=O)(OCc2ccccc2)OCc2ccccc2)cc1)NC(=O)OC1COC2OCCC12)S(=O)(=O)c1ccc(C=O)cc1` (centres unmarked) stands below 50 nM; under `CCOC(=O)C(C)OP(=O)(COc1ccc(CC(NC(=O)OC2COC3OCCC23)C(O)CN(CC(C)C)S(=O)(=O)c2ccc(CO)cc2)cc1)Oc1ccccc1` (centres unmarked), below 50 nM; under `CCOC(=O)C(C)OP(=O)(COc1ccc(CC(NC(=O)OC2COC3OCCC23)C(O)CN(CC(C)C)S(=O)(=O)c2ccc(CN3CCOCC3)cc2)cc1)Oc1ccccc1` (centres unmarked), 50 to 500 nM. With `COc1ccc(S(=O)(=O)N(CC(C)C)C[C@@H](OP(=O)(O)O)[C@H](Cc2ccc(OCP(=O)(Oc3ccccc3)O[C@@H](C)C(=O)OC(C)C)cc2)NC(=O)O[C@H]2CO[C@H]3OCC[C@H]32)cc1` (some centres unmarked) the figure was below 50 nM.
